As a reminder, the inhibition is how much of the control response was suppressed. The term IC50 denotes the concentration that gives 50% inhibition.

Results on 32 compounds are retold here after patent US7776882B2, “2-amino-3,4-dihydro-quinoline derivatives useful as inhibitors of β-secretase (BACE)” (priority 2006, dated 2010).

One experiment concerns the target T1, β-secretase (BACE) (Homo sapiens, UniProt P56817).
T1 construct: purchased Panvera
Put plainly: In Vitro BACE FS1 % Inhibition Assay (Example 10). The following applies: FS1 substrate, values below about 25% (including negative) within noise; for % Inhibition (Example 10) @ 0.3 μM: 0.3 μM compound; for % Inhibition (Example 10) @ 3 μM: 3 μM compound; for % Inhibition (Example 10) @ 1 μM: 1 μM compound. It is filed as biochemical. How it is done: The following assay buffers were prepared and used in this assay: (1) enzyme assay buffer (0.05 M sodium acetate, pH5, 0.1% PEG8000 (w/v)), (2) substrate assay buffer (0.05 M sodium acetate, pH5), and (3) compound vehicle (30% DMSO in 50 mM HEPES, pH 7.4).
The FS1-substrate stock solution was prepared in DMSO as a 10 mg/mL solution. The FS1-substrate working solution was prepared by diluting the 10 mg/mL stock solution with substrate assay buffer to a final concentration of 300 μg/mL. The β-secretase (BACE) working solution was prepared by diluting a 0.83 mg/mL BACE stock solution with enzyme assay buffer to a final concentration of 4 μg/mL.
Test compounds were dissolved in DMSO to 10 mM. Compounds were further diluted in vehicle to various concentrations in the range of 405 μM to 4.05 μM (13.5×final compound concentration in screening plate).
The screening procedure for this assay was as follows: 15 μL of BACE working solution was pipetted into each well of a 96-well plate. To each well was then pipetted 2 μL of test compound at the selected concentration. Test compound and BACE were then mixed with a pipettor and incubated for 20 min at room temperature. To each well was then added 10 μL of the FS1 substrate working solution. The plates were then incubated for 1 hour at room temperature. The fluorescence for each well was then measured on an LJL analyst (Ex 360 nm/Em 530 nm).
The procedure for the blank (negative control) was as follows. 15 μL of assay buffer was pipetted into each well to be used as a blank control. To each well was then added 2 μL of vehicle and 10 μL of FS1-substrate working solution. The plates were then incubated for 1 hour at room temperature. The fluorescence was measured on an LJL analyst (Ex 360 nm/Em 530 nm).
The procedure for the positive control was as follows: 15 μL of BACE working solution was pipetted into each well to be used as a positive control. To each well was then pipetted 2 μL of vehicle. Vehicle and BACE were then mixed with a pipettor and incubated for 20 min at room temperature. To each well was then added 10 μL of the FS1 substrate working solution. The plates were then incubated for 1 hour at room temperature. The fluorescence (Fl) was then measured on an LJL analyst (Ex 360 nm/Em 530 nm).
For test compounds, % inhibition was determined at each concentration as follows: […]

The next experiment concerns the target T2, human BACE-1 (Homo sapiens, UniProt P56817).
T2 construct: purchased CEREP (contract assay) 761-B
Put plainly: In Vitro BACE Assay run by CEREP (Example 14). It is filed as biochemical. The following applies: recombinant enzyme, 60 min at 37° C., pH 4.5; for inhibition at 1 µM / % Inhibition 1 μM: 1 μM compound; for inhibition at 0.3 µM: 0.3 μM compound. The protocol: This assay was run by CEREP (Catalog Ref. 761-B, Referred to SOP No. 1C131; ERMOLIEFF, J., LOY, J. A., KOELSCH, G. and TANG, J., Proteolytic activation of recombinant pro-memapsin 2 (pro-BACE) studied with new fluorogenic substrates, Biochemistry, (2000) Vol. 39, p. 12450).
More specifically the assay, run at 50 μL in a 96 well plate, evaluated the effect of test compound on the activity of the human BACE-1 quantified by measuring the formation of Mca-S-E-V-N-L-NH2 from Mca-S-E-V-N-L-D-A-E-F-R-K(Dnp)-R-R-NH2, using a recombinant enzyme.
The test compound, reference compound or water (control) was added to a buffer containing 0.09 M sodium acetate (pH 4.5) and 0.25 μg BACE-1. Compound interference with the fluorimetric detection method due to autofluorescence was then checked by measurements at the wavelengths defined to evaluate the enzyme activity. Thereafter, the reaction was initiated by adding 7.5 μM of the substrate Mca-S-E-V-N-L-D-A-E-F-R-K(Dnp)-R-R-NH2 and the mixture was incubated for 60 min at 37° C. For control basal measurement, the substrate was omitted from the reaction mixture. Immediately after the incubation, the fluorescence intensity emitted by the reaction product Mca-S-E-V-N-L-NH2 was measured at λex=320 nm and λem=405 nm using a microplate reader (Ultra, Tecan). The standard inhibitory reference compound was OM99-2, which was tested in each experiment at several concentrations to obtain an inhibition curve from which its IC50 value was calculated.

T1 sequence (P56817 46-501): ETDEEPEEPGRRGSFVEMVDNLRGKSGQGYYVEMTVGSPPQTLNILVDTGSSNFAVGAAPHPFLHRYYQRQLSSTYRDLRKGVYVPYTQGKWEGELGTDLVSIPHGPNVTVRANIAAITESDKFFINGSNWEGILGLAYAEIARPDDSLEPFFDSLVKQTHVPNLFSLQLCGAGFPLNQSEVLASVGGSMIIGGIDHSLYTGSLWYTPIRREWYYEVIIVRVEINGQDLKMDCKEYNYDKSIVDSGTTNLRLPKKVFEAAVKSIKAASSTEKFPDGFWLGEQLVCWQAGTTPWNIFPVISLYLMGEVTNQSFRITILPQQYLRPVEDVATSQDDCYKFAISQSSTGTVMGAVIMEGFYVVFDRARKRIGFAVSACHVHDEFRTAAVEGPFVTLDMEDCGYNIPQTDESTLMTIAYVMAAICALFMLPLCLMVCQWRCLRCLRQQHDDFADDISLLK
T2 sequence (P56817 46-501): as above

Consider `COC(=O)[C@H]1CC[C@@H](NC(=O)CCC(c2cc3cc(Oc4ccccc4)ccc3nc2N)C2CCCCC2)CC1` (some centres unmarked) [compound 19], for which, at β-secretase (BACE), the “% Inhibition (Example 10) @ 0.3 μM” value is on record as −15% and the “% Inhibition (Example 10) @ 3 μM” value is on record as 24%.
In the case of `Nc1nc2ccc(Oc3ccccc3)cc2cc1C(CCC(=O)N(CCN1CCOCC1)C1CCCCC1)C1CCOCC1` (centres unmarked) [compound 65], on human BACE-1, the inhibition at 1 µM amounted to 69% and the IC50 was 850 nM.
As to `Nc1nc2ccc(Oc3ccccc3)cc2cc1C(CCC(=O)N(CCO)C1CCCCC1)C1CCOCC1` (centres unmarked) [compound 50], at human BACE-1, the “% Inhibition 1 μM” value amounted to 87% and the IC50 was 740 nM.
For `CC(C)(C)CN(Cc1ccccn1)C(=O)CCC(c1cc2cc(Oc3ccccc3)ccc2nc1N)C1CCOCC1` (centres unmarked) [compound 69], at human BACE-1, the inhibition at 1 µM turned out to be 69% and the concentration for half-maximal inhibition (IC50) came out at 670 nM.
With `Cn1ccnc1CN(C(=O)CCC(c1cc2cc(Oc3ccccc3)ccc2nc1N)C1CCCCC1)C1CCCCC1` (centres unmarked) [compound 39], at human BACE-1, the inhibition at 0.3 µM is 16% and the IC50 came to 490 nM.
`Nc1nc2ccc(Oc3ccccc3)cc2cc1C(CCC(=O)NCC1CC1)C1CCOCC1` (centres unmarked) [compound 36]: at human BACE-1, the inhibition at 0.3 µM came to 49%, the inhibition at 1 µM came out at 59% and the half-maximal inhibitory concentration (IC50) worked out at 610 nM.
In the case of `CN(CCC(c1cc2cc(Oc3ccccc3)ccc2nc1N)C1CCCCC1)C1CCCCC1` (centres unmarked) [compound 61], on human BACE-1, the “% Inhibition 1 μM” value turned out to be 15%.
Take `Nc1nc2ccc(Oc3ccccc3)cc2cc1C(CCC(=O)N(Cc1ncc[nH]1)C1CCCCC1)C1CCOCC1` (centres unmarked) [compound 30]: at human BACE-1, the inhibition at 1 µM came out at 91% and the IC50 amounted to 410 nM.
As for `Cn1ccnc1CN(CCC(C)(C)C)C(=O)CCC(c1cc2cc(Oc3ccccc3)ccc2nc1N)C1CCOCC1` (centres unmarked) [compound 56], on human BACE-1, the “% Inhibition 1 μM” value worked out at 94%.
Consider `CC(C)(C)CN(Cc1ncc[nH]1)C(=O)CCC(c1cc2cc(Oc3ccccc3)ccc2nc1N)C1CCOCC1` (centres unmarked) [compound 58], for which, on human BACE-1, the “% Inhibition 1 μM” value is listed as 88%.
With `Nc1nc2ccc(Oc3ccccc3)cc2cc1C(CCC(=O)N(CN1CCCC1)C1CCCCC1)C1CCOCC1` (centres unmarked) [compound 64], on human BACE-1, the inhibition at 1 µM is 83% and the half-maximal inhibitory concentration (IC50) was determined as 190 nM.
Turning to `Cc1ccccc1N1CCN(C(=O)CCc2cc3cc(Oc4ccccc4)ccc3nc2N)CC1` [compound 75], on β-secretase (BACE), the “% Inhibition (Example 10) @ 0.3 μM” value was 24%, the “% Inhibition (Example 10) @ 1 μM” value is on record as −8% and the “% Inhibition (Example 10) @ 3 μM” value is recorded as 17%.
The like results for `Nc1nc2ccc(Oc3ccccc3)cc2cc1C(CCC(=O)N[C@H]1CC[C@H](C(=O)O)CC1)C1CCCCC1` (some centres unmarked) [compound 22] were, in that order, 0.6%, −19% and −3%.
Take `Cn1ccnc1CN(CC(C)(C)C)C(=O)CCC(c1cc2cc(Oc3ccccc3)ccc2nc1N)C1CCCCC1` (centres unmarked) [compound 43]: on human BACE-1, the inhibition at 1 µM was determined as 88% and the IC50 amounted to 650 nM.
For `Nc1nc2ccc(Oc3ccccc3)cc2cc1C(CCC(=O)N[C@H]1CC[C@@H](C(=O)O)CC1)C1CCCCC1` (some centres unmarked) [compound 21], on β-secretase (BACE), the “% Inhibition (Example 10) @ 0.3 μM” value stood at 0.5%, the “% Inhibition (Example 10) @ 1 μM” value is −1% and the “% Inhibition (Example 10) @ 3 μM” value worked out at 10%.
Turning to `Cn1ccnc1CN(CC(C)(C)C)C(=O)CCC(c1cc2cc(Oc3ccccc3)ccc2nc1N)C1CCOCC1` (centres unmarked) [compound 55], on human BACE-1, the inhibition at 1 µM came out at 83% and the half-inhibitory concentration (IC50) amounted to 420 nM.
Consider `Nc1nc2ccc(Oc3ccccc3)cc2cc1CCNC(=O)C1CCCCC1` [compound 4], for which, at β-secretase (BACE), the “% Inhibition (Example 10) @ 0.3 μM” value is recorded as 14%, the “% Inhibition (Example 10) @ 1 μM” value is 9% and the “% Inhibition (Example 10) @ 3 μM” value is 42%.
Turning to `Nc1nc2ccc(Oc3ccccc3)cc2cc1C(CCC(=O)NC1CN2CCC1CC2)C1CCOCC1` (mixture of isomers) [compound 52], the “% Inhibition 1 μM” value at human BACE-1 was 6%.
With `Nc1nc2ccc(Oc3ccccc3)cc2cc1C(CCC(=O)N(CCO)C1CCCCC1)C1CCCCC1` (centres unmarked) [compound 42], on human BACE-1, the inhibition at 1 µM amounted to 58% and the 50% inhibitory concentration (IC50) stood at 810 nM.
The like results for `Cn1ccnc1CN(C(=O)CCC(c1cc2cc(Oc3ccccc3)ccc2nc1N)C1CCOCC1)C1CCCCC1` (centres unmarked) [compound 54] were, in that order, 85% and 450 nM.
The like results for `Nc1nc2ccc(Oc3ccccc3)cc2cc1C(CCC(=O)N(Cc1ccccn1)C1CCCCC1)C1CCOCC1` (centres unmarked) [compound 60] were, in that order, 83% and 320 nM.
For `C=CCC(c1cc2cc(Oc3ccccc3)ccc2nc1N)C1CCCCC1` (centres unmarked) [compound 503], at β-secretase (BACE), the “% Inhibition (Example 10) @ 0.3 μM” value is recorded as 28%, the “% Inhibition (Example 10) @ 1 μM” value is reported as 19% and the “% Inhibition (Example 10) @ 3 μM” value is recorded as 36%.
The like results for `CN(C(=O)CCCc1cc2cc(Oc3ccccc3)ccc2nc1N)C1CCCCC1` [compound 18] were, in that order, 29%, 26% and 36%.
The like results for `CCCCNC(=O)CCc1cc2cc(Oc3ccccc3)ccc2nc1N` [compound 12] were, in that order, −2%, 0.8% and 19%.
In the case of `Nc1nc2ccc(Oc3ccccc3)cc2cc1CCC(=O)NCC1CCCCC1` [compound 11], on β-secretase (BACE), the “% Inhibition (Example 10) @ 1 μM” value was 5% and the “% Inhibition (Example 10) @ 3 μM” value worked out at 81%.
For the compound `COC(=O)CCCc1cc2cc(Oc3ccccc3)ccc2nc1N` [compound 504], on β-secretase (BACE), the “% Inhibition (Example 10) @ 0.3 μM” value was 21%, the “% Inhibition (Example 10) @ 1 μM” value is 21% and the “% Inhibition (Example 10) @ 3 μM” value stood at 18%.
Take `COC(=O)[C@H]1CC[C@H](NC(=O)CCC(c2cc3cc(Oc4ccccc4)ccc3nc2N)C2CCCCC2)CC1` (some centres unmarked) [compound 20]: at β-secretase (BACE), the “% Inhibition (Example 10) @ 0.3 μM” value was −8%, the “% Inhibition (Example 10) @ 1 μM” value is −11% and the “% Inhibition (Example 10) @ 3 μM” value is recorded as 34%.
As to `COCCNC(=O)CCc1cc2cc(Oc3ccccc3)ccc2nc1N` [compound 5], on β-secretase (BACE), the “% Inhibition (Example 10) @ 0.3 μM” value amounted to 22%, the “% Inhibition (Example 10) @ 1 μM” value was determined as 41% and the “% Inhibition (Example 10) @ 3 μM” value is on record as 37%.
For the compound `Nc1nc2ccc(Oc3ccccc3)cc2cc1CCC(=O)N1CCN(c2cccc(F)c2)CC1` [compound 76], at β-secretase (BACE), the “% Inhibition (Example 10) @ 0.3 μM” value is listed as 28% and the “% Inhibition (Example 10) @ 3 μM” value worked out at 16%.
On to `Nc1nc2ccc(Oc3ccccc3)cc2cc1CCCC(=O)NC12CC3CC(CC(C3)C1)C2` [compound 17], for which, at β-secretase (BACE), the “% Inhibition (Example 10) @ 0.3 μM” value was 19%, the “% Inhibition (Example 10) @ 1 μM” value was 20% and the “% Inhibition (Example 10) @ 3 μM” value is reported as 46%.
The like results for `CCN(CC)CCNC(=O)CCc1cc2cc(Oc3ccccc3)ccc2nc1N` [compound 10] were, in that order, −11%, −13% and −0.3%.
Regarding `Nc1nc2ccc(Oc3ccccc3)cc2cc1CCC(=O)N[C@H](CO)CC1CCCCC1` [compound 14], at β-secretase (BACE), the “% Inhibition (Example 10) @ 0.3 μM” value was −14%, the “% Inhibition (Example 10) @ 1 μM” value is −27% and the “% Inhibition (Example 10) @ 3 μM” value was −15%.
